Measured values taken from US12209073B2, “Polymorphs of a dihydroorotate dehydrogenase (DHOD) inhibitor” (KIORA PHARMACEUTICALS GmbH, priority 2022, dated 2025).
Converted amounts (≈) assume the structure as drawn. “Also recorded” adds a separate entry of the source.

Key:
[1] = Gravimetric Vapor Sorption (GVS); format: physicochemical; conditions: for Hygroscopicity (GVS): 0-90% RH; for Hygroscopicity (GVS) / GVS mass uptake, equivalent of water / GVS mass uptake: 25° C.; for XRPD Post-GVS: after GVS isotherm; for GVS mass uptake, equivalent of water / GVS mass uptake: between 0 and 90% RH
Experimental: Gravimetric Vapor Sorption (GVS). Sorption isotherms were obtained using a SMS DVS Intrinsic moisture sorption analyzer, controlled by DVS Intrinsic Control software. The sample temperature was maintained at 25° C. by the instrument controls. The humidity was controlled by mixing streams of dry and wet nitrogen, with a total flow rate of 200 ml/min. The relative humidity was measured by a calibrated Rotronic probe (dynamic range of 1.0-100% RH), located near the sample. The weight change, (mass relaxation) of the sample as a function of % RH was constantly monitored by a microbalance (accuracy ±0.005 mg). Typically, 5-30 mg of sample was placed in a tared mesh stainless steel basket under ambient conditions. The sample was loaded and unloaded at 40% RH and 25° C. (typical room conditions). A moisture sorption isotherm was performed as outlined below (2 scans per complete cycle). The standard isotherm was performed at 25° C. at 10% RH intervals over a 0-90% RH range. Typically, a double cycle (4 scans) was carried out. Data analysis was carried out within Microsoft Excel using the DVS Analysis Suite. [table] The sample was recovered after completion of the isotherm and re-analyzed by XRPD.

[2] = Intrinsic dissolution rate (IDR) in pH 7.4 phosphate buffer; format: physicochemical; conditions: for XRPD post-IDR: after IDR in pH 7.4 phosphate buffer; for Dissolution rate (pH 7.4 buffer): pH 7.4 phosphate buffer
Excerpt: In addition, the thermodynamic solubility and the IDR of the two forms was compared in selected media. In addition to the competitive slurrying, Form A and Form B were both submitted to thermodynamic solubility measurements in FaSSIF media, as well as IDR in pH 7.4 phosphate buffer. The results are shown in Table 19 The full reports for both measurements can be found in Appendix 2—Analytical Service Reports.

[3] = Thermodynamic solubility in FaSSIF; format: physicochemical; conditions: for XRPD post-TS (residual solid): after thermodynamic solubility in FaSSIF
Experimental: Thermodynamic Aqueous Solubility. Aqueous solubility was determined by suspending sufficient compound in relevant media to give a maximum final concentration of ≥10 mg/ml of the parent free-form of the compound. The suspension was equilibrated at 25° C., on a Heidolph plate shaker set to 750 rpm for 24 hours. The pH of the saturated solution was then measured, and the suspension filtered through a glass fiber C filter (particle retention 1.2 μm) and diluted appropriately. Quantitation was by HPLC with reference to a standard solution of approximately 0.15 mg/ml in DMSO. Different volumes of the standard, diluted and undiluted sample solutions were injected. The solubility was calculated using the peak areas determined by integration of the peak found at the same retention time as the principal peak in the standard injection. [table] In addition to the competitive slurrying, Form A and Form B were both submitted to thermodynamic solubility measurements in FaSSIF media, as well as IDR in pH 7.4 phosphate buffer. The results are shown in Table 19 The full reports for both measurements can be found in Appendix 2—Analytical Service Reports.

[4] = Competitive slurrying of Form A and Form B; format: physicochemical; conditions: competitive slurrying of Form A and Form B in a range of solvents at 5, 25 and 50° C.
Experimental: The aim of this work was to investigate the order of stability of the scaled-up Form A and Form B via competitive slurrying of the materials in a range of solvents at 5° C., 25° C. and 50° C.
The proposed solvents were aliquoted (1 ml) into HPLC vials and held at 5° C., 25° C. and 50° C. respectively, equilibrating at 300 rpm. […] The saturated solutions were allowed to equilibrate overnight.
Approximately 300 mg of Form B, prepared as described previously in Example 5, and the Form A were added to a 20 ml scintillation vial. The vial was subjected to turbula mixing for over 2 hours to ensure the mixture was homogenous. Approximately 30 mg of a mixture of Form A and Form B was added to a series HPLC vials. The vials were placed at 5, 25 and 50° C., 300 rpm. The suspensions prepared previously were filtered through a PTFE syringe directly into each vial to suspend the prepared form mixture in a saturated solution of the target solvent. Polymorph turnover was investigated by taking a 30-50 μl aliquot of the suspension and analyzing by XRPD.

[5] = Accelerated storage stability (XRPD & HPLC); format: physicochemical
Experimental: Chemical Purity Determination by HPLC. Purity analysis was performed on an Agilent HP1100/Infinity II 1260 series system equipped with a diode array detector and using OpenLAB software. The full method details are provided below in Table 12: [table] HPLC indicated the material to have a purity of 99.6% (FIG. 12A). […] The sample was left for an additional 22 days (total 30 days storage) and re-analyzed by XRPD, appearing as Form A, lacking the additional peaks previously observed (FIG. 13B). It was therefore possible that contamination of sample on the instrument in the previous 8-day timepoint was the likely cause of the additional peaks, rather than a form chance or degradation. […] (92 J/g) (FIG. 16). PLM and SEM images indicate the particles to be a series of spherical agglomerates (ca. 50 to 100 μm in diameter), which consist of small (<10 μm) plate-like crystals (FIGS. 17A-17B). HPLC analysis indicated the sample maintained a high purity of 99.5% (FIG. 18A). […] There is a small hysteresis between adsorption and desorption. The sample was unchanged by XRPD post-GVS analysis. […]

Oral bioavailability = conditions: in vivo, depending on formulation used
Excerpt: (§1) The general tested characteristics of 3-(2,3,5,6-tetrafluoro-3′-trifluoromethoxy-biphenyl-4-ylcarbamoyl)-thiophene-2-carboxylic acid (PP-001) are shown below in Table 8.

[6] = Stability in artificial gastric juice, simulated intestinal fluid and PBS; format: in vitro ADME
Excerpt: as §1

[7] = Stability in human plasma; format: in vitro ADME
Excerpt: as §1

[8] = Solubility in 50 mM phosphate buffer; format: physicochemical
Excerpt: as §1

[9] = LogP (measured) of PP-001; format: physicochemical
Excerpt: as §1

pKa of PP-001 = format: physicochemical
Excerpt: as §1

[10] = Solubility and solvent selection assessment; format: physicochemical
Experimental: PP-001 (ca. 20 mg, Batch #1) was treated with increasing aliquots of solvent until either a clear solution or maximum of 80 vol ([…]) of solvent was added. Samples were left for […] at 25° C., 300 rpm, after each solvent addition before observations were recorded. Where possible, samples were heated to 50° C. and further observations were taken. Solutions at 25 or 50° C. were cooled to 5° C. at 0.1° C./min, 300 rpm and held overnight. Any suspensions at 50° C. were subjected to maturation cycling between RT/50° C. (4 hours per cycle). Solvents unsuitable for heating to 50° C. or cooling to 5° C. were subjected to evaporation, antisolvent addition at RT or maturation at RT, depending on the solvent.
After 24 h, any solutions at 5° C. were subjected to evaporation at RT with the lid removed. Samples subjected to evaporation were analyzed once dry. The remaining suspensions were left for 3 days at conditions before being extracted using an SPE cartridge and frit under positive pressure filtration.

[11] = Solvent assessment for lyophilization; format: physicochemical; conditions: maximum of 60 vol
Experimental: Preparation and solubility of amorphous PP-001. PP-001 was treated with increasing aliquots of solvent until a maximum of 60 vol (1800 μl) was added in a HPLC vial.
Samples that formed solutions were positive pressure filtered using a PTFE syringe filter to remove any remaining solid particulates. The solutions were then flash frozen in a dry ice/acetone bath and lyophilized overnight to remove the solvent. Solids isolated post-lyophilization were analyzed by XRPD and characterized.

[12] = Stability at pH 2, pH 7.4 and pH 8.5; format: physicochemical
Excerpt: as §1

SMILES: O=C(Nc1c(F)c(F)c(-c2cccc(OC(F)(F)F)c2)c(F)c1F)c1ccsc1C(=O)O [Form A, 3-(2,3,5,6-tetrafluoro-3′-trifluoromethoxy-biphenyl-4-ylcarbamoyl)-thiophene-2-carboxylic acid]
- Hygroscopicity (GVS) ([1]; listed as PP-001 Form A): mass uptake. Sample is non- hygroscopic
- XRPD Post-GVS ([1]; listed as PP-001 Form A): Unchanged
- GVS mass uptake, equivalent of water [1]: 0.03 mol
- GVS mass uptake ([1]; listed as PP-001 Form A): 0.12 wt %
- XRPD post-IDR [2]: Unchanged
- Dissolution rate (pH 7.4 buffer) [2]: 0.071 mg/min/cm^2
- solubility thermodynamic at 24 h ([3]; FaSSIF, 25 °C, pH 6.4, fassif, thermodynamic from solid, FaSSIF, 25° C., 24 hours, read-out: Thermodynamic solubility (TS) in FaSSIF): 760 µg/mL (≈ 1590 µM)
- XRPD post-TS (residual solid) [3]: Unchanged, residual
- XRPD post-TS (residual solid) ([3]; listed as PP-001 Form A): largely unchanged; also recorded: XRPD unchanged in form plus NaCl reference peaks
- Relative thermodynamic stability of the forms [4]: thermodynamically more stable form; also recorded: preferred form over all conditions and solvents tested
- XRPD after storage ([5]; 25° C./97% RH, 8 days, listed as PP-001 Form A): a small peak was gained at 8.1 2θ angle and a loss of a small peak at 17.6 2θ angle; also recorded: Small peak gain at 8.1 2Θ and a loss of small peaket 17.6
- XRPD after storage ([5]; 40° C./75% RH, 8 days, listed as PP-001 Form A): Unchanged

SMILES: O=C(Nc1c(F)c(F)c(-c2cccc(OC(F)(F)F)c2)c(F)c1F)c1ccsc1C(=O)O [Form B, 3-(2,3,5,6-tetrafluoro-3′-trifluoromethoxy-biphenyl-4-ylcarbamoyl)-thiophene-2-carboxylic acid]
- Hygroscopicity (GVS) [1]: non-hygroscopic
- XRPD Post-GVS [1]: unchanged
- XRPD Post-GVS ([1]; listed as PP-001 Form B): Unchanged
- GVS mass uptake [1]: 0.10 wt %
- GVS mass uptake, equivalent of water [1]: 0.03 mol
- GVS mass uptake ([1]; listed as PP-001 Form B): 0.10 wt %
- XRPD post-IDR [2]: Unchanged
- Dissolution rate (pH 7.4 buffer) [2]: 0.15 mg/min/cm^2
- Thermodynamic solubility (TS) in FaSSIF ([3]; FaSSIF, 25° C., 24 hours): 930 µg/mL
- XRPD post-TS (residual solid) [3]: Unchanged, residual
- HPLC purity after storage ([5]; 25° C./97% RH, 7 days): 99.4%
- XRPD after storage ([5]; 25° C./97% RH, 7 days): no observable changes
- XRPD after storage ([5]; 25° C./97% RH, 7 days, listed as PP-001 Form B): Unchanged
- HPLC purity after storage ([5]; 40° C./75% RH, 7 days): 99.6%
- XRPD after storage ([5]; 40° C./75% RH, 7 days): no observable changes
- XRPD after storage ([5]; 40° C./75% RH, 7 days, listed as PP-001 Form B): Unchanged

SMILES: O=C(Nc1c(F)c(F)c(-c2cccc(OC(F)(F)F)c2)c(F)c1F)c1ccsc1C(=O)O [PP-001, 3-(2,3,5,6-tetrafluoro-3′-trifluoromethoxy-biphenyl-4-ylcarbamoyl)-thiophene-2-carboxylic acid]
- bioavailability (Oral bioavailability): 15 to 30%
- Stability (stable for) ([6]; PBS pH 7.4): Stable for >6 h in artificial gastric juice, simulated
- Stability (stable for) ([6]; artificial gastric juice): Stable for >6 h in artificial gastric juice, simulated
- Stability (stable for) ([6]; simulated intestinal fluid): Stable for >6 h in artificial gastric juice, simulated
- Stability (stable for) [7]: Stable for >6 h in artificial gastric juice, simulated
- solubility ([8]; pH 4, aqueous buffer): 1.4 µg/mL (≈ 2.92 µM)
- solubility ([8]; pH 7.4, aqueous buffer): 854 µg/mL (≈ 1780 µM)
- solubility ([8]; pH 9, aqueous buffer): 833 µg/mL (≈ 1740 µM)
- logP [9]: 4.19
- pKa (pKa of PP-001): 2.23
- Solubility in solvents ([10]; 25° C., dissolution in volumes <80 vol, in 15 of the solvents tested): good solubility
- Solubility in solvents ([10]; 50° C., IPA, 1-propanol, ACN, MeOH:water (3%), MeOH:water (5%), EtOH:water (5%), IPA:water (5%) and IPA:water (25%)): Clear solutions
- Solubility in solvents ([10]; aprotic, polar solvents such as THF, DMSO and acetone): higher solubility
- Solubility in solvents ([10]; heptane, toluene, chloroform and water, up to 80 vol, heated to 50° C.): remained suspensions
- Solubility for lyophilization ([11]; 1,4-dioxane): soluble
- Solubility for lyophilization ([11]; THF:water (70:30)): soluble
- Stability (stable for) ([12]; pH 2 (HCl)): Stable for >16 h at pH 2 (HCl), pH 7.4 (trisbuffer),
- Stability (stable for) ([12]; pH 7.4 (tris buffer)): Stable for >16 h at pH 2 (HCl), pH 7.4 (trisbuffer),
- Stability (stable for) ([12]; pH 8.5 (tris buffer)): Stable for >16 h at pH 2 (HCl), pH 7.4 (trisbuffer),
